Results: patent US20230339865A1, “QUINAZOLINE-DERIVED HCK INHIBITORS FOR USE IN THE TREATMENT OF MYD88 MUTATED DISEASES” (Dana-Farber Cancer Institute, Inc., priority 2020, published 2023)

What was measured:
HCK, BTK, and NFκB = experiment: Pharmacodynamic studies in mice; assay type: in vivo
FER = target: T1, FER (Homo sapiens, UniProt P16591); experiment: Invitrogen kinase assay FER; assay type: biochemical
T1 construct: purchased Invitrogen
Procedure: (§1) The IC50 values were also determined for Compound (I-1) using an Invitrogen kinase assay. The results are shown in Table 2, along with comparison data with TL2-059.

MAP4K1 (HPK1) = target: T2, MAP4K1 (HPK1) (Homo sapiens, UniProt Q92918); experiment: Invitrogen kinase assay MAP4K1 (HPK1); assay type: biochemical
T2 construct: purchased Invitrogen
Procedure: as §1

TAOK1 = target: T3, TAOK1 (Homo sapiens, UniProt Q7L7X3); experiment: Invitrogen kinase assay TAOK1; assay type: biochemical
T3 construct: purchased Invitrogen
Procedure: as §1

LYN A = target: T4, LYN A (Homo sapiens, UniProt P07948); experiment: Invitrogen kinase assay LYN A; assay type: biochemical
T4 construct: purchased Invitrogen
Procedure: as §1

[1] = tested on: MYD88 mutated WM and ABC DLBCL cell lines, primary WM cells; experiment: Apoptotic effects in MYD88 mutated cells; assay type: cell-based; conditions: vs. ibrutinib or A419259
[2] = tested on: MYD88 mutated ABC DLBCL TMD8 xenograft; experiment: In-vivo rat efficacy study in MYD88 mutated ABC DLBCL TMD8 xenografted rats
Procedure: Example 1. In-Vivo Rat Efficacy Study in MYD88 Mutated ABC DLBCL TMD8 Xenografted Rats
A rat efficacy study for was carried out with Compound (I-1) using an MYD88 mutated ABC DLBCL TMD8 xenografted rat model.

HCK [3] = target: T5, HCK (Homo sapiens, UniProt P08631); experiment: HCK inhibition in MYD88 mutated cells; assay type: cell-based; conditions: MYD88 mutated WM and ABC DLBCL cell lines and primary WM cells
HCK [4] = target: T5, HCK; experiment: Invitrogen kinase assay HCK; assay type: biochemical; design: purchased Invitrogen
Procedure: as §1

[5] = target: T6, MAP3K7/MAP3K7IP1 (TAK1-TAB1) (Homo sapiens, UniProt O43318); experiment: Invitrogen kinase assay MAP3K7/MAP3K7IP1 (TAK1-TAB1); assay type: biochemical
T6 construct: purchased Invitrogen
Procedure: as §1

FES (FPS) = target: T7, FES (FPS) (Homo sapiens, UniProt P07332); experiment: Invitrogen kinase assay FES (FPS); assay type: biochemical
T7 construct: purchased Invitrogen
Procedure: as §1

[6] = microsome stability (human); assay type: in vitro ADME; conditions: microsomes, read-out: microsome stability (T1/2, min)
Procedure: (§2) The compounds were tested against several different cell lines, and the ED50 values determined, along with the microsome stability.

LCK = target: T8, LCK (Homo sapiens, UniProt P06239); experiment: Invitrogen kinase assay LCK; assay type: biochemical
T8 construct: purchased Invitrogen
Procedure: as §1

[7] = target: T9, MAPK14 (p38 alpha) Direct (Homo sapiens, UniProt Q16539); experiment: Invitrogen kinase assay MAPK14 (p38 alpha) Direct; assay type: biochemical
T9 construct: purchased Invitrogen
Procedure: as §1

FYN = target: T10, FYN (Homo sapiens, UniProt P06241); experiment: Invitrogen kinase assay FYN; assay type: biochemical
T10 construct: purchased Invitrogen
Procedure: as §1

MAP4K2 (GCK) = target: T11, MAP4K2 (GCK) (Homo sapiens, UniProt Q12851); experiment: Invitrogen kinase assay MAP4K2 (GCK); assay type: biochemical
T11 construct: purchased Invitrogen
Procedure: as §1

[8] = tested on: healthy donor B- and T-cells; experiment: Effect on healthy donor B- and T-cells; assay type: cell-based
[9] = microsome stability (mouse); assay type: in vitro ADME; conditions: microsomes, read-out: microsome stability (T1/2, min)
Procedure: as §2

TAOK3 (JIK) = target: T12, TAOK3 (JIK) (Homo sapiens, UniProt Q9H2K8); experiment: Invitrogen kinase assay TAOK3 (JIK); assay type: biochemical
T12 construct: purchased Invitrogen
Procedure: as §1

SRC = target: T13, SRC (Homo sapiens, UniProt P12931); experiment: Invitrogen kinase assay SRC; assay type: biochemical
T13 construct: purchased Invitrogen
Procedure: as §1

ABL2 (Arg) = target: T14, ABL2 (Arg) (Homo sapiens, UniProt P42684); experiment: Invitrogen kinase assay ABL2 (Arg); assay type: biochemical
T14 construct: purchased Invitrogen
Procedure: as §1

[10] = microsome stability (rat); assay type: in vitro ADME; conditions: microsomes, read-out: microsome stability (T1/2, min)
Procedure: as §2

ABL1 = target: T15, ABL1 (Homo sapiens, UniProt P00519); experiment: Invitrogen kinase assay ABL1; assay type: biochemical
T15 construct: purchased Invitrogen
Procedure: as §1

FGR = target: T16, FGR (Homo sapiens, UniProt P09769); experiment: Invitrogen kinase assay FGR; assay type: biochemical
T16 construct: purchased Invitrogen
Procedure: as §1

TAOK2 (TAO1) = target: T17, TAOK2 (TAO1) (Homo sapiens, UniProt Q9UL54); experiment: Invitrogen kinase assay TAOK2 (TAO1); assay type: biochemical
T17 construct: purchased Invitrogen
Procedure: as §1

T5 sequence (P08631 whole entry): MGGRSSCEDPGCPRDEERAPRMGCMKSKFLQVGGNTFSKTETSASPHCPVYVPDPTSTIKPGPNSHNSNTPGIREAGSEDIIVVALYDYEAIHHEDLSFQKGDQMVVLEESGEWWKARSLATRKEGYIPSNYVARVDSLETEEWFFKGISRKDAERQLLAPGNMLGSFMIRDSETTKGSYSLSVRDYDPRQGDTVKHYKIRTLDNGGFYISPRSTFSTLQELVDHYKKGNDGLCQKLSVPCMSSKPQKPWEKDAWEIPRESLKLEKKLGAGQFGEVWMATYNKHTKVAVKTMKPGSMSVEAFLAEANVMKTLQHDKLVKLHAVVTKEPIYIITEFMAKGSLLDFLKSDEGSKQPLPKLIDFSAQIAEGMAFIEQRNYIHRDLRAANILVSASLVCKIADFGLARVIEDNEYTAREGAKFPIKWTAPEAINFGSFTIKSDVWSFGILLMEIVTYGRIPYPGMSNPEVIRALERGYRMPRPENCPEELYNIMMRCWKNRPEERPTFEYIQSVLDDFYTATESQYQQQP
T16 sequence (P09769 whole entry): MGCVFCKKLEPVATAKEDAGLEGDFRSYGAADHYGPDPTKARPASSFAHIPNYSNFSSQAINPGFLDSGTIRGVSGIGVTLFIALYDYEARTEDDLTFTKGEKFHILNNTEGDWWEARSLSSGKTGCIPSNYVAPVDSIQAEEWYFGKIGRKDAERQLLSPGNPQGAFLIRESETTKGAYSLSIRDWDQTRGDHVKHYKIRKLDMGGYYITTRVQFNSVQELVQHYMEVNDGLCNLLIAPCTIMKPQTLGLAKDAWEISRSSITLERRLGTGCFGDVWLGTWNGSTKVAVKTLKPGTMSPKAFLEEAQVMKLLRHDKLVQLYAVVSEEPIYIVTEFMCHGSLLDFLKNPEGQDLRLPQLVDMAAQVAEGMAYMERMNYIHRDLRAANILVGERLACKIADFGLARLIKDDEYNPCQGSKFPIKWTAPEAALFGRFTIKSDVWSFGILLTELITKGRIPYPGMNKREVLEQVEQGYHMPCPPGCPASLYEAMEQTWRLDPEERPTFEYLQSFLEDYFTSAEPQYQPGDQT
T14 sequence (P42684 whole entry): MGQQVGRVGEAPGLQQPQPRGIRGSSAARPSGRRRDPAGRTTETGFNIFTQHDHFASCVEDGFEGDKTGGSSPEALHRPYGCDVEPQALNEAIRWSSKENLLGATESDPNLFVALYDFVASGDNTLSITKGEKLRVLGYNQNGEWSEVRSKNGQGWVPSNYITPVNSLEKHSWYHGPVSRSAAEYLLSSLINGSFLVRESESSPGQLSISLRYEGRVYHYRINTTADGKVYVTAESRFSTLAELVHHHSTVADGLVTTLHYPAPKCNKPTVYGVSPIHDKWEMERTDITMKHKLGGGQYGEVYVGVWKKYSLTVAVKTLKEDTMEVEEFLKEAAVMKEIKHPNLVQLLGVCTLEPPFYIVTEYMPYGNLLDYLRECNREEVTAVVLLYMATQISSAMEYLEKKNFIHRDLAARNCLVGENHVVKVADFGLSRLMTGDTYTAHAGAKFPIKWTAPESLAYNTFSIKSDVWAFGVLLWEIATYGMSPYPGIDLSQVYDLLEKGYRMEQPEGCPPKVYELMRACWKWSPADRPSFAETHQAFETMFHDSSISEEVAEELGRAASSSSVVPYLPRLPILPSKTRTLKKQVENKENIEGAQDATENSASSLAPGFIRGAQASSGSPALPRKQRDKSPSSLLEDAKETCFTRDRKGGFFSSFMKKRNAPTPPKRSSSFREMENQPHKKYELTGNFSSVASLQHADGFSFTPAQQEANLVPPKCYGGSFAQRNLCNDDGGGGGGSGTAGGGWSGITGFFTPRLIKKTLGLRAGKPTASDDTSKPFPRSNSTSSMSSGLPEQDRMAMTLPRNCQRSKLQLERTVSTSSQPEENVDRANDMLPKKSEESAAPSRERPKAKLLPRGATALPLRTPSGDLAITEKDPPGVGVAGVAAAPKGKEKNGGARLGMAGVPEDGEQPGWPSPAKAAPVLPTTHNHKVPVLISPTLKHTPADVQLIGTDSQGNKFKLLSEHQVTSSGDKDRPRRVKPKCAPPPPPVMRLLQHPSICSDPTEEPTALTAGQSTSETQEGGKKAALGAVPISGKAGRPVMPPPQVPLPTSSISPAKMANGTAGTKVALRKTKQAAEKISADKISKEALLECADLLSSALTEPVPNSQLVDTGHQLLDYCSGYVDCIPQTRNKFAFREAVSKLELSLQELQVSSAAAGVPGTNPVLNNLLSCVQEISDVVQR
T13 sequence (P12931 whole entry): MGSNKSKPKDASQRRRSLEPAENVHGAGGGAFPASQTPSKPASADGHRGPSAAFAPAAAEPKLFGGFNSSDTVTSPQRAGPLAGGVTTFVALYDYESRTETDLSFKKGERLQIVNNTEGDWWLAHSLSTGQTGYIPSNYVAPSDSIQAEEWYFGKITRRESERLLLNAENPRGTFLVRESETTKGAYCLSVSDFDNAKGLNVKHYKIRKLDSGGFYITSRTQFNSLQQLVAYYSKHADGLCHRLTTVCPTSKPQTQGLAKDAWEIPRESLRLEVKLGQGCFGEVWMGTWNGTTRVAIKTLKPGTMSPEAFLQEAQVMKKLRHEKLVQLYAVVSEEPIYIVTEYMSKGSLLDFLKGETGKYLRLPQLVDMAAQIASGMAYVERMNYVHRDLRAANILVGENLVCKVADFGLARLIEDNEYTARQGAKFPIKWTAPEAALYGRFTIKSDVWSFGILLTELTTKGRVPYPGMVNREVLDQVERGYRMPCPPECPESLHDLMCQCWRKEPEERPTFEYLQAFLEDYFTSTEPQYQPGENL
T1 sequence (P16591 whole entry): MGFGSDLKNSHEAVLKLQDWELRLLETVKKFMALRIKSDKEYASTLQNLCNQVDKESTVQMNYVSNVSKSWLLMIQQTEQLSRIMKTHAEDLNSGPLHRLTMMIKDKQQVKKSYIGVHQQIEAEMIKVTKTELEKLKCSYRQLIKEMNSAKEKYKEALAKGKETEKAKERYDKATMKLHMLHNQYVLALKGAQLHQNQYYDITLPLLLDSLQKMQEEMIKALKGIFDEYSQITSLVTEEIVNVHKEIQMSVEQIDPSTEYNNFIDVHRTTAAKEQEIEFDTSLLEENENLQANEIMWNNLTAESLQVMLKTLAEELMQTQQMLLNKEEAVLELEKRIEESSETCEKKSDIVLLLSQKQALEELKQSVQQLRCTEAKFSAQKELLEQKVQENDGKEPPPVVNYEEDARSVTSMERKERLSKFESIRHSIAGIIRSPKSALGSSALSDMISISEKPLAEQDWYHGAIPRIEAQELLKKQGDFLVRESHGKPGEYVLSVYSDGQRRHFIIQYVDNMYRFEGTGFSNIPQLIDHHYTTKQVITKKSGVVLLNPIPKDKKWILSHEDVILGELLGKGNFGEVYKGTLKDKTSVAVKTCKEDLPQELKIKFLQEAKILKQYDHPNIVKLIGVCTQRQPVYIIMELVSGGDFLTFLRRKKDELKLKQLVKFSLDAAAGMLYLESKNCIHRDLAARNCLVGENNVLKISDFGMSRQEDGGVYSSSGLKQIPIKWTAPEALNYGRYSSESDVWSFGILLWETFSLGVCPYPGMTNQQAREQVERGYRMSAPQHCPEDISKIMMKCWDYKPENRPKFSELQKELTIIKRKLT
T11 sequence (Q12851 whole entry): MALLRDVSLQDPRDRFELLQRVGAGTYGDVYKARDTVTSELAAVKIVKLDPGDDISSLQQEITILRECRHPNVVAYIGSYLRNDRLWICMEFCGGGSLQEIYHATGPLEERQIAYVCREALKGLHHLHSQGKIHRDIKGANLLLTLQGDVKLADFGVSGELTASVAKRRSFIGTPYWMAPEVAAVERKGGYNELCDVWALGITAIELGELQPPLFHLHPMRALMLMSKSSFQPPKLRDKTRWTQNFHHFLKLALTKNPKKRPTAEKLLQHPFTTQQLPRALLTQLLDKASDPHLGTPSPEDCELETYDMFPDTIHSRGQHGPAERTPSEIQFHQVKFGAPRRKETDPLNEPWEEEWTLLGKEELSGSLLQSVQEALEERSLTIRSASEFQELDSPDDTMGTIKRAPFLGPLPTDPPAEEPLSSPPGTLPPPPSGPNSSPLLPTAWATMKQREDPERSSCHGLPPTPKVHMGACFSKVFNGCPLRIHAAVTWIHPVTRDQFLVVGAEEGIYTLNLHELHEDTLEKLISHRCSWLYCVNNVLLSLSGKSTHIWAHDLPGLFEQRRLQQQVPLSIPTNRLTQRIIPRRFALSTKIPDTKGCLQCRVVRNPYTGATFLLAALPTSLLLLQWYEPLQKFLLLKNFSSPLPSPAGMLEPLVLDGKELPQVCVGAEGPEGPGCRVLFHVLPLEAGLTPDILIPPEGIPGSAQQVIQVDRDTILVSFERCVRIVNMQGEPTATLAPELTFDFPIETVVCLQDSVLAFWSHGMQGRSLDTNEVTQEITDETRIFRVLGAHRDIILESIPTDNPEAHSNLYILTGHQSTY
T8 sequence (P06239 whole entry): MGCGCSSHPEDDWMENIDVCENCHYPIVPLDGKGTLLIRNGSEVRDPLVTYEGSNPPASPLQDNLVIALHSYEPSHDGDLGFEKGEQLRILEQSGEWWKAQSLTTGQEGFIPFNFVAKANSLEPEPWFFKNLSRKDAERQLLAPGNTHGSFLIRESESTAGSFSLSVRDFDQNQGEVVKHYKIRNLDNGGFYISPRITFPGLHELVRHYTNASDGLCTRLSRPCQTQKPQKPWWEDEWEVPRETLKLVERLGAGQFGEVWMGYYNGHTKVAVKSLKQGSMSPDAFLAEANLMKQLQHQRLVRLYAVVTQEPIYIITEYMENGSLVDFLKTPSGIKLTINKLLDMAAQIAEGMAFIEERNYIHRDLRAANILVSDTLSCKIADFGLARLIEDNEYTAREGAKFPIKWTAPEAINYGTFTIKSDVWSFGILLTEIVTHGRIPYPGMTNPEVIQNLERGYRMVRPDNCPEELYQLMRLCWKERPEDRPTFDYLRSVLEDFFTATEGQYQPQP

Q: What does the source list for `CCN1CCN(Cc2ccc(NC(=O)c3ccc(C)c(Oc4ncnc5cc(NC)c(OC)cc45)c3)cc2C(F)(F)F)CC1` [Compound (I-1), N-(4-((4-ethylpiperazin-1-yl)methyl)-3-(trifluoromethyl)phenyl)-3-(6-methoxy-7-(methylamino)quinazolin-4-yloxy)-4-methylbenzamide]?
A: Pharmacodynamic inhibition of HCK, BTK, and NFκB (HCK, BTK, and NFκB): inhibition of HCK, BTK, and NFκB; tumor redistribution (HCK, BTK, and NFκB): dose-related tumor redistribution; IC50 (FER): 9.81 nM; IC50 (MAP4K1 (HPK1)): 11.8 nM; IC50 (TAOK1): 194 nM; IC50 (LYN A): 8.77 nM; apoptotic effects [1]: potent apoptotic effects; Mean tumor volume compared to vehicle ([2]; 30 mg/kg, TMD8 xenografted rat model): lower Mean tumor volume compared to vehicle; survival days ([2]; TMD8 xenograft model, vehicle 22 survival days): 43 days; HCK inhibition (HCK [3]): inhibits HCK in a dose dependent Type II inhibition; IC50 (HCK [4]): 7.39 nM; IC50 [5]: 24.1 nM; IC50 (FES (FPS)): 11 nM; half-life [6]: 79.3 min; IC50 (LCK): 4.73 nM; IC50 [7]: 79.7 nM; IC50 (FYN): 419 nM; IC50 (MAP4K2 (GCK)): 8.35 nM; effect on healthy donor B- and T-cells [8]: sparing of healthy donor B- and T-cells; half-life [9]: 42.4 min; IC50 (TAOK3 (JIK)): 413 nM; IC50 (SRC): 77.5 nM; IC50 (ABL2 (Arg)): 45.5 nM; half-life [10]: 60.2 min; IC50 (ABL1): 32.3 nM; IC50 (FGR): 8.02 nM; IC50 (TAOK2 (TAO1)): 61.3 nM

Q: With `CCN1CCN(Cc2ccc(NC(=O)c3ccc(C)c(Oc4ncnc5cc(N)c(OC)cc45)c3)cc2C(F)(F)F)CC1` [Compound (I-2), 3-(7-amino-6-methoxyquinazolin-4-yloxy)-N-(4-((4-ethylpiperazin-1-yl)methyl)-3-(trifluoromethyl)phenyl)-4-methylbenzamide] as the compound, how does the half-life [9] read?
A: 41.7 min

Q: With `COc1cc2c(Oc3cc(C(=O)Nc4cccc(C(F)(F)F)c4)ccc3C)ncnc2cc1NCCN1CCN(C)CC1` [Compound (I-4), 3-(6-methoxy-7-(2-(4-methylpiperazin-1-yl)ethylamino)quinazolin-4-yloxy)-4-methyl-N-(3-(trifluoromethyl)phenyl)benzamide] as the compound, how does the half-life [9] read?
A: 5.7 min

Q: With `CCN1CCN(Cc2ccc(NC(=O)c3ccc(C)c(Oc4ncnc5cc(NC)ccc45)c3)cc2C(F)(F)F)CC1` [Compound (I-14), N-(4-((4-ethylpiperazin-1-yl)methyl)-3-(trifluoromethyl)phenyl)-4-methyl-3-(7-(methylamino)quinazolin-4-yloxy)benzamide] as the compound, how does the half-life [9] read?
A: 20.4 min

Q: Which half-life [9] does the source give for `CCN1CCN(Cc2ccc(NC(=O)c3ccc(C)c(Oc4ncnc5cc6[nH]cnc6cc45)c3)cc2C(F)(F)F)CC1` [Compound (I-16), 3-(3H-imidazo[4,5-g]quinazolin-8-yloxy)-N-(4-((4-ethylpiperazin-1-yl)methyl)-3-(trifluoromethyl)phenyl)-4-methylbenzamide] here?
A: 8.6 min
